Among the data in US10301261B2, “Substituted indoles as modulators of ROR-gamma” (Vitae Pharmaceuticals, LLC, priority 2015, dated 2019) are Ki and IC50 values, retold here.

Some results are limits rather than exact numbers.

Experiment [1] has as its target recombinant RORγ Ligand Binding Domain (LBD) protein (Homo sapiens (Human), UniProt P51449). Put plainly: Radio-Ligand RORγ Binding Assay (Assay 1). The settings on record: radio-ligand 25-hydroxy [26,27-3H]-cholesterol competition. In a few lines:
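Cell-free competition with 25-hydroxy[26,27-³H]-cholesterol for the ligand site of 6×His-GST-tagged RORγ LBD; SPA read-out with poly-Lys YSi beads after shaking and incubation at rt. IC50 taken as the inflection point of a four-parameter fit of percent inhibition vs concentration.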

Experiment [2] concerns the target full-length RORγt in Jurkat cells (Homo sapiens (Human), UniProt P51449). Put plainly: RORγt 5×RORE Assay in Jurkat Cells (Assay 2). The settings on record: RORγt 5×RORE Nanoluc reporter. The experiment is classed as cell-based.

Broadly, the Ki is the dissociation constant of the complex between target and ligand, obtained from inhibition or displacement. Usually IC50 stands for the midpoint of a concentration-inhibition curve. Low values mean higher potency, high ones lower potency.

Chain of full-length RORγt in Jurkat cells (P51449 other isoform, or with tags, fused parts or gaps): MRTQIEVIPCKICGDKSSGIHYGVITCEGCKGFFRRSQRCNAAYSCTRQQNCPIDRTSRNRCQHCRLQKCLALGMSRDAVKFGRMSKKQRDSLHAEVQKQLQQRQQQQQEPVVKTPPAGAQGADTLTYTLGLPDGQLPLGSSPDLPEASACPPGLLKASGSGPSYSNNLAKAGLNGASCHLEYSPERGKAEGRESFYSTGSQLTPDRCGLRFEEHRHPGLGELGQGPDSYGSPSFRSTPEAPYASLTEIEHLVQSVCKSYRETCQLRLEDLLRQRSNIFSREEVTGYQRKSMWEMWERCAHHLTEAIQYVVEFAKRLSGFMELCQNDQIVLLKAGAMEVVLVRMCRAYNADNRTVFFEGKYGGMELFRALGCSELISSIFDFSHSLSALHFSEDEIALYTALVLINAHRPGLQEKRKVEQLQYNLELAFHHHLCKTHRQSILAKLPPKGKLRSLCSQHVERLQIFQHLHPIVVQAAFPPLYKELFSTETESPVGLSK
Chain of recombinant RORγ Ligand Binding Domain (LBD) protein (P51449 269-508): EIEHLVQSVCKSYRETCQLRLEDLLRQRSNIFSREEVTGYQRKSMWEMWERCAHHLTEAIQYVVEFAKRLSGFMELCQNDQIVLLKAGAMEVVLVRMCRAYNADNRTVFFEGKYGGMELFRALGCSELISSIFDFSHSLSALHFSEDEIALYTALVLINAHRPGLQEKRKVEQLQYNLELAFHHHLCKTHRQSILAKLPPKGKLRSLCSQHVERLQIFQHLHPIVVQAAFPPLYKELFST

Consider “1-ethyl-N-((R)-1-(4-(ethylsulfonyl)phenyl)-2-hydroxyethyl)-2-(((1s,4S)-4-(trifluoromethyl)cyclohexyl)methyl)-1H-indole-5-carboxamide [IN-16.2]”, for which the Ki in experiment [1] is less than 100 nM. In experiment [2], this molecule registered a half-maximal inhibitory concentration (IC50) greater than 1000 nM.
Take `CCS(=O)(=O)c1ccc(CNC(=O)c2ccc3c(c2)nc(Oc2ccc(C(F)(F)F)cc2)n3C2CC2)cc1` [BE-6, 1-cyclopropyl-N-(4-(ethylsulfonyl)benzyl)-2-(4-(trifluoromethyl)phenoxy)-1H-benzo[d]imidazole-5-carboxamide]: the Ki in experiment [1] was less than 100 nM. The molecule also displayed an IC50 in experiment [2] of less than 100 nM.
In the case of `CNS(=O)(=O)c1ccc(CNC(=O)c2ccc3c(c2)nc(C[C@H]2CC[C@H](C(F)(F)F)CC2)n3C2CC2)cc1` [BE-33, 1-cyclopropyl-N-(4-(N-methylsulfamoyl)benzyl)-2-(((1r,4r)-4-(trifluoromethyl)cyclohexyl)methyl)-1H-benzo[d]imidazole-5-carboxamide], in experiment [1], the Ki is less than 100 nM. Moreover, the 50% inhibitory concentration (IC50) in experiment [2] is less than 100 nM.
As for `CCS(=O)(=O)c1ccc([C@H](CO)NC(=O)c2ccc3c(c2)nc(C[C@H]2CC[C@H](C(F)(F)F)CC2)n3C2CC2)nc1` [BE-28, 1-cyclopropyl-N-((R)-1-(5-(ethylsulfonyl)pyridin-2-yl)-2-hydroxyethyl)-2-(((1r,4R)-4-(trifluoromethyl)cyclohexyl)methyl)-1H-benzo[d]imidazole-5-carboxamide], in experiment [1], the Ki was less than 100 nM. Also, in experiment [2], the IC50 was less than 100 nM.
For the molecule `CCS(=O)(=O)c1ccc(CNC(=O)c2cnc3c(c2)cc(C[C@H]2CC[C@H](C(F)(F)F)CC2)n3C2CC2)cc1` [AI-1, 1-cyclopropyl-N-(4-(ethylsulfonyl)benzyl)-2-(((1r,4r)-4-(trifluoromethyl)cyclohexyl)methyl)-1H-pyrrolo[2,3-b]pyridine-5-carboxamide], in experiment [1], the Ki was less than 100 nM. In experiment [2], this molecule yielded an IC50 of less than 100 nM.
Regarding `CCn1c(OCc2ccc(C(F)(F)F)cc2)nc2cc(C(=O)N[C@@H](CO)c3ccc(S(=O)(=O)CC)cc3)ccc21` [BE-14, (R)-1-ethyl-N-(1-(4-(ethylsulfonyl)phenyl)-2-hydroxyethyl)-2-((4-(trifluoromethyl)benzyl)oxy)-1H-benzo[d]imidazole-5-carboxamide], the inhibitory constant (Ki) in experiment [1] was less than 100 nM. Also, the IC50 in experiment [2] is less than 100 nM.
On to `CCS(=O)(=O)c1ccc(CNC(=O)c2ccc3c(c2)nc(Cc2ccc(OC(F)F)cc2)n3C2CC2)cc1` [BE-48, 1-cyclopropyl-2-(4-(difluoromethoxy)benzyl)-N-(4-(ethylsulfonyl)benzyl)-1H-benzo[d]imidazole-5-carboxamide], for which the Ki in experiment [1] was less than 100 nM. In addition, in experiment [2], the IC50 is less than 100 nM.
